Literature values, collected in patent publication US20080145318A1, “ATOMOXETINE FORMULATIONS AND ASSOCIATED METHODS” (priority 2006, published 2008).

Legend:
other receptor systems = details: in words
[1] = target: norepinephrine reuptake transporter (Homo sapiens, UniProt P23975); details: relative to atomoxetine, in words
serotonin reuptake = serotonin reuptake (Homo sapiens, UniProt P31645); details: in words
serotonin reuptake, sequence (P31645 whole entry): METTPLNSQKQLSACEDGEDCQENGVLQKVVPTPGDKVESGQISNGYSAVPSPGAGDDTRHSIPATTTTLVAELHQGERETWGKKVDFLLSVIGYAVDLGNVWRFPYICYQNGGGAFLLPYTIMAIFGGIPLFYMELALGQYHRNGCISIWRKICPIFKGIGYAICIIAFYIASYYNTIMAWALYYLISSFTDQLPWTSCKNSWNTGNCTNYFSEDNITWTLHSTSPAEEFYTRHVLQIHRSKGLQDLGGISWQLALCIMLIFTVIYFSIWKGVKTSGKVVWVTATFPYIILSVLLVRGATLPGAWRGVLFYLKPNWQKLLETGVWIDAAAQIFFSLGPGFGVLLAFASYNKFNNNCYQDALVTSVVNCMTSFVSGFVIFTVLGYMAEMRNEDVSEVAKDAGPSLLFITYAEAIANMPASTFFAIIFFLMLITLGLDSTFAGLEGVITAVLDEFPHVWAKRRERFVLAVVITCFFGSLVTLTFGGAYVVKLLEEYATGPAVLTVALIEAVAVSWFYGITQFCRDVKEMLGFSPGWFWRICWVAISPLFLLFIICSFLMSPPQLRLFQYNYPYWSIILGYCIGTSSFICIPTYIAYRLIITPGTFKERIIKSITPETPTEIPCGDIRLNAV

norepinephrine reuptake transporter, sequence (P23975 whole entry): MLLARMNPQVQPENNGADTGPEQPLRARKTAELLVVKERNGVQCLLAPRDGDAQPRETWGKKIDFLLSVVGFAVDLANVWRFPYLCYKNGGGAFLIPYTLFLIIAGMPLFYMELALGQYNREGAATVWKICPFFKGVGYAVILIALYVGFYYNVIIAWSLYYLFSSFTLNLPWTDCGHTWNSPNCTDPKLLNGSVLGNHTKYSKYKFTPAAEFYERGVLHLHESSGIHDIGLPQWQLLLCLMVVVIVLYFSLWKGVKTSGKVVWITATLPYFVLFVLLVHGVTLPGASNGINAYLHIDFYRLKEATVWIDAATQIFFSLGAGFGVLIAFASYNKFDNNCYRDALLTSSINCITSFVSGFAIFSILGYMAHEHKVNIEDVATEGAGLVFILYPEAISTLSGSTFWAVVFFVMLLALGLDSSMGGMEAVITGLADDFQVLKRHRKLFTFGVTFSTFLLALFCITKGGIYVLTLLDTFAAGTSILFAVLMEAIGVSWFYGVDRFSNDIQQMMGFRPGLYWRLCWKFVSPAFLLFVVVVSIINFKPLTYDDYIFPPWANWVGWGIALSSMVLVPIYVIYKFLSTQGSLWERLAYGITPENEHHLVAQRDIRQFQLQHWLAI

Q: Which plasma half-life (individuals having normal activity in the CYP2D6 pathway) does the source give for `CNCCC(Oc1ccccc1C)c1ccccc1` (single isomer, unassigned; (-)) [atomoxetine, (−)-N-methyl-3-phenyl-3-(o-tolyloxy)-propylamine] here?
A: about 5 hours

Q: And the half-life (individuals having reduced activity in the CYP2D6 pathway (poor metabolizers))?
A: about 24 hours

Q: What does the source list for `Cc1cc(O)ccc1OC(CCN)c1ccccc1` (centres unmarked) [4H-NDA, N-desmethyl-4-hydroxyatomoxetine]?
A: affinity to other receptor systems (other receptor systems): little affinity; inhibitory activity to the norepinephrine reuptake transporter compared to atomoxetine [1]: less active

Q: Which “affinity to other receptor systems” value (other receptor systems) does the source give for `CNCCC(Oc1ccc(O)cc1C)c1ccccc1` (centres unmarked) [4HA, 4-hydroxyatomoxetine] here?
A: little affinity

Q: And the “serotonin reuptake inhibitor activity” value (serotonin reuptake)?
A: pharmacologically active

Q: With `Cc1ccccc1OC(CCN)c1ccccc1` (centres unmarked) [NDA, N-desmethylatomoxetine] as the molecule, how does the “affinity to other receptor systems” value (other receptor systems) read?
A: little affinity

Q: And the “inhibitory activity to the norepinephrine reuptake transporter compared to atomoxetine” value [1]?
A: less active
